Test results published in patent publication US8217073B2, “Pyrrole derivatives as therapeutic compounds” (Myrexis, Inc., priority 2005, dated 2012).
“And” between values parts separate entries of the source, which are not always exact repeats. Equal values may be shown once.

Experiments:
[1] = system: Aβ42 secretion; assay: Aβ42 secretion by H4 cells expressing APP695, sandwich ELISA; type: cell-based, human; conditions: medium collected at 24 or 48 hours, several numbers = independent sets of assays; for IC50: about 1 μM to about 100 μM; for inhibition at 100 µM / % Inhibition of Aβ42 Secretion @ 100 μM: test compound 100 μM vs DMSO control
Procedure: (§1) The present invention provides compositions and methods for lowering Aβ42 levels. To test whether compounds and compositions are capable of modulating Aβ levels in cultured cells, sandwich enzyme-linked immunosorbent assays (ELISAs) are employed to measure secreted Aβ (Aβ42 and/or Aβ40 levels). In this example, H4 cells expressing wide type APP695 are seeded at 200,000 cells per well in 6 well plates, and incubated at 37° C. with 5% CO2 overnight. Cells are treated with 1.5 ml medium containing vehicle (DMSO) or a test compound at 1.25 μM, 2.5 μM, 5.0 μM and 10.0 μM (as well as other concentration if desirable) for 24 hours or 48 hours. The supernatant from treated cells is collected into eppendorf tubes and frozen at −80° C. for future analysis.
(§2) The amyloid peptide standard is reconstituted and frozen samples are thawed. The samples and standards are diluted with appropriate diluents and the plate is washed 4 times with Working Wash Buffer and patted dry on a paper towel. 100 μL per well of peptide standards, controls, and dilutions of samples to be analyzed is added. The plate is incubated for 2 hours while shaking on an orbital plate shaker at RT. The plate is then washed 4 times with Working Wash Buffer and patted dry on a paper towel. Detection Antibody Solution is poured into a reservoir and 100 μL/well of Detection Antibody Solution is immediately added to the plate. The plate is incubated at RT for 2 hours while shaking and then washed four times with Working Wash Buffer and patted dry on a paper towel. Secondary Antibody Solution is then poured into a reservoir and 100 μL/well of Secondary Antibody Solution is immediately added to the plate. The plate is incubated at RT for 2 hours with shaking, washed 5 times with Working Wash Buffer, and patted dry on a paper towel.
(§3) 100 μL of stabilized chromogen is added to each well and the liquid in the wells begins to turn blue. The plate is incubated for 30 minutes at room temperature and in the dark. 100 μL of stop solution is added to each well and the plate is tapped gently to mix resulting in a change of solution color from blue to yellow. The absorbance of each well is read at 450 nm having blanked the plate reader against a chromogen blank composed of 100 μL each of stabilized chromogen and stop solution. The plate is read within 2 hours of adding the stop solution. The absorbance of the standards is plotted against the standard concentration and the concentrations of unknown samples and controls are calculated.
(§4) The present invention provides compositions and methods for lowering Aβ42 levels. To test whether compounds and compositions are capable of modulating Aβ levels, sandwich enzyme-linked immunosorbent assays (ELISAs) is employed to measure secreted Aβ42 and/or Aβ40 levels. In this example, H4 cells expressing wide type APP695 are seeded at 200,000 cells per well in 6 well plates, and incubated at 37° C. with 5% CO2 overnight. Cells are treated with 1.5 mL medium containing vehicle (DMSO) or a test compound at 1.25 μM, 2.5 μM, 5.0 μM and 10.0 μM concentration for 24 hours or 48 hours. The supernatant from treated cells is collected into eppendorf tubes and frozen at −80° C. for future analysis.
(§5) 130 μL per well of samples, standards, and blanks is added to a 96-well polypropylene plate. […] of samples, standards, and blanks from the polypropylene plate is added to the antibody-coated plates. The strip-holder with the appropriate number of strips is applied to the antibody-coated plates and the strips are covered with an adhesive sealer. The plate is then incubated 3 hours at room temperature while shaking on an orbital plate shaker.
(§6) The first antibody solution is prepared with Conjugate Diluent 1 at 1:100 ratio. Each well of the antibody-coated plates is washed 5 times with 400 μL washing solution and 100 μL of the prepared first antibody solution is added to each well. […]

[2] = system: Aβ40 secretion; assay: Aβ40 secretion by H4 cells expressing APP695, sandwich ELISA; type: cell-based, human; conditions: medium collected at 24 or 48 hours, several numbers = independent sets of assays; for IC50: about 1 μM to about 100 μM; for inhibition at 100 µM / % Inhibition of Aβ40 Secretion @ 100 μM: test compound 100 μM vs DMSO control
Procedure: as §1, §2, §3, §4, §5, §6

SMILES | IC50 ([1]; Homo sapiens) | inhibition at 100 µM ([1]; Homo sapiens) | IC50 ([2]; Homo sapiens) | inhibition at 100 µM ([2]; Homo sapiens) | % Inhibition of Aβ42 Secretion @ 100 μM [1] | % Inhibition of Aβ40 Secretion @ 100 μM [2] | IC50 [1] | IC50 [2]
Cc1c(-c2ccccc2)cc(-c2ccccc2)n1-c1ccc(C(=O)O)cc1 [Compound 39, 4-(2-Methyl-3,5-diphenyl-pyrrol-1-yl)-benzoic acid] | 50 µM | 86% | 54 µM | 92% |  |  |  | 
Cc1c(-c2ccccc2)cc(-c2ccc(C(F)(F)F)cc2)n1-c1cccc(C(=O)O)c1 [Compound 14, 3-[2-Methyl-3-phenyl-5-(4-trifluoromethyl-phenyl)-pyrrol-1-yl]-benzoic acid] |  | 96% |  |  | 101% and 99% and 92% |  |  | 
Cc1c(-c2ccccc2)cc(-c2ccccc2)n1-c1cccc(C(=O)O)c1 [Compound 2, 3-(2-Methyl-3,5-diphenyl-pyrrol-1-yl)-benzoic acid] | 48 µM | 76% | > 100 µM | 36% |  |  |  | 
O=C(O)CCc1cccc(-n2c(-c3ccccc3)cc(-c3ccccc3)c2C2CC2)c1 [Compound 34, 3-[3-(2-Cyclopropyl-3,5-diphenyl-pyrrol-1-yl)-phenyl]-propionic acid] | 30 µM | 95% | 48 µM | 100% |  |  |  | 
Cc1c(-c2ccccc2)cc(-c2ccccc2)n1-c1ccc(OCCC(=O)O)cc1 [Compound 28, 3-[4-(2-Methyl-3,5-diphenyl-pyrrol-1-yl)-phenoxy]-propionic acid] | 80 µM | 55% | > 32 µM | 32% |  |  |  | 
Cc1c(-c2cccc(C(F)(F)F)c2)cc(-c2ccccc2)n1-c1ccc(CCCC(=O)O)cc1 [Compound 10, 4-{4-[2-Methyl-5-phenyl-3-(3-trifluoromethyl-phenyl)-pyrrol-1-yl]-phenyl}-butyric acid] | 15 µM | 79% | 11 µM | 97% |  |  |  | 
Cc1c(-c2cccc(C(F)(F)F)c2)cc(-c2ccccc2)n1-c1cccc(C(=O)O)c1 [Compound 8, 3-[2-Methyl-5-phenyl-3-(3-trifluoromethyl-phenyl)-pyrrol-1-yl]-benzoic acid] |  | 94% |  |  | 80% | 88% and 64% |  | 
CC(C)c1c(-c2ccccc2)cc(-c2ccccc2)n1-c1cccc(C(=O)O)c1 [Compound 30, 3-(2-Isopropyl-3,5-diphenyl-pyrrol-1-yl)-benzoic acid] | 15 µM | 99% | 22 µM | 101% |  |  |  | 
CCOC(=O)c1cc(CCc2ccccc2)n(-c2cccc(CCC(=O)O)c2)c1-c1ccccc1 [Compound 21, 1-[3-(2-Carboxy-ethyl)-phenyl]-5-phenethyl-2-phenyl-1H-pyrrole-3-carboxylic acid ethyl ester] | 55 µM | 66% | > 100 µM | 38% |  |  |  | 
O=C(O)CCCc1ccc(-n2c(-c3ccccc3)cc(-c3ccccc3)c2C2CC2)cc1 [Compound 35, 4-[4-(2-Cyclopropyl-3,5-diphenyl-pyrrol-1-yl)-phenyl]-butyric acid] | 29 µM | 83% | 79 µM |  | 93% | 73% and 96% | 24 µM | 68 µM
Cc1c(-c2ccccc2)cc(-c2ccccc2)n1-c1ccc(Cl)c(C(=O)O)c1 [Compound 3, 2-Chloro-5-(2-methyl-3,5-diphenyl-pyrrol-1-yl)-benzoic acid] | 37 µM | 89% | 98 µM | 52% |  |  |  | 
CCc1c(-c2ccccc2)cc(-c2ccccc2)n1-c1cccc(CCC(=O)O)c1 [Compound 12, 3-[3-(2-Ethyl-3,5-diphenyl-pyrrol-1-yl)-phenyl]-propionic acid] | 34 µM | 85% | > 100 µM | 27% |  |  |  | 
CCc1c(-c2ccccc2)cc(-c2ccccc2)n1-c1ccc(CCCC(=O)O)cc1 [Compound 13, 4-[4-(2-Ethyl-3,5-diphenyl-pyrrol-1-yl)-phenyl]-butyric acid] | 12 µM | 83% | > 100 µM | 14% |  |  |  | 
COc1ccc(C(=O)O)cc1-n1c(-c2ccccc2)cc(-c2ccccc2)c1C [Compound 4, 4-Methoxy-3-(2-methyl-3,5-diphenyl-pyrrol-1-yl)-benzoic acid] | 29 µM | 84% | > 100 µM | 22% |  |  |  | 
Cc1c(-c2cccc(C(F)(F)F)c2)cc(-c2ccccc2)n1-c1cccc(CCC(=O)O)c1 [Compound 9, 3-{3-[2-Methyl-5-phenyl-3-(3-trifluoromethyl-phenyl)-pyrrol-1-yl]-phenyl}-propionic acid] | 15 µM | 82% | 28 µM | 86% |  |  |  | 
CC(C)(C)Cc1c(-c2ccccc2)cc(-c2ccccc2)n1-c1ccc(CCCC(=O)O)cc1 [Compound 38, 4-{4-[2-(2,2-Dimethyl-propyl)-3,5-diphenyl-pyrrol-1-yl]-phenyl}-butyric acid] | 10 µM | 94% | 63 µM | 88% | 101% | 104% | 7 µM | 37 µM
Cc1c(-c2ccccc2)cc(-c2ccccc2)n1-c1cccc(OCC(=O)O)c1 [Compound 26, [3-(2-Methyl-3,5-diphenyl-pyrrol-1-yl)-phenoxy]-acetic acid] | 21 µM | 147% | 42 µM | 94% |  |  |  | 
Cc1c(-c2ccccc2)cc(-c2ccccc2)n1-c1cccc(CCC(=O)O)c1 [Compound 5, 3-[3-(2-Methyl-3,5-diphenyl-pyrrol-1-yl)-phenyl]-propionic acid] | 100 µM | 55% | > 100 µM | 31% |  |  |  | 
CC(C)c1c(-c2ccccc2)cc(-c2ccccc2)n1-c1cccc(CCC(=O)O)c1 [Compound 31, 3-[3-(2-Isopropyl-3,5-diphenyl-pyrrol-1-yl)-phenyl]-propionic acid] | 21 µM | 95% | 23 µM | 106% |  |  |  | 
CC(C)c1c(-c2ccccc2)cc(-c2ccccc2)n1-c1ccc(CCCC(=O)O)cc1 [Compound 32, 4-[4-(2-Isopropyl-3,5-diphenyl-pyrrol-1-yl)-phenyl]-butyric acid] | 22 µM | 98% | 41 µM | 103% |  |  |  | 
CC(C)(C)Cc1c(-c2ccccc2)cc(-c2ccccc2)n1-c1cccc(CCC(=O)O)c1 [Compound 37, 3-{3-[2-(2,2-Dimethyl-propyl)-3,5-diphenyl-pyrrol-1-yl]-phenyl}-propionic acid] | 9 µM | 100% | 30 µM | 98% | 99% | 104% | 7 µM | 32 µM
Cc1c(-c2ccccc2)cc(-c2ccc(Cl)c(Cl)c2)n1-c1cccc(C(=O)O)c1 [Compound 17, 3-[5-(3,4-Dichloro-phenyl)-2-methyl-3-phenyl-pyrrol-1-yl]-benzoic acid] | 10 µM | 83% | > 100 µM | 10% |  |  |  | 
